Test results reported in US10570168B2, “2′ and/or 5′ amino-acid ester phosphoramidate 3′-deoxy adenosine derivatives as anti- cancer compounds” (NuCana plc, priority 2014, dated 2020).
Where two headings read alike, the source gives them in different places.

Assays:
HL-60 = assay: Solid tumour and haematological malignancy assay (CellTiterGlo); format: cell-based; conditions: Homo sapiens; for IC50: read-out: IC50 (absolute IC50); for Emax: read-out: MI %
Summary of the method: (§1)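 Viability measured by CellTiterGlo after cells grew with test compound for 72 hr; DMSO kept at 0.5% final.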

CCRFCEM = assay: as above; format: cell-based; conditions: Homo sapiens, CCRF-CEM; for IC50: read-out: IC50 (absolute IC50); for Emax: read-out: MI %
Summary of the method: as §1

HT29 = assay: as above; format: cell-based; conditions: Homo sapiens; for IC50: read-out: IC50 (absolute IC50); for Emax: read-out: MI %
Summary of the method: as §1

HepG2 = assay: as above; format: cell-based; conditions: Homo sapiens; for IC50: read-out: IC50 (absolute IC50); for Emax: read-out: MI %
Summary of the method: as §1

MiaPaCa-2 = assay: as above; format: cell-based; conditions: Homo sapiens; for IC50: read-out: IC50 (absolute IC50); for Emax: read-out: MI %
Summary of the method: as §1

K562 (TdT negative) = assay: ATP (ViaLight plus) cytotoxicity assay; format: cell-based, Human; conditions: for IC50: Homo sapiens; for (FD) fold difference compared to Cordycepin = Cordycepin IC50/ProTide IC50: K562
Method: (§2) Certain compounds of the invention were subjected to further studies to test the cytotoxic activity of certain compounds of the invention and also to measure their activity against 4 haematological cancer cell lines • TdT positive CEM (Human ALL) • TdT negative K562 (Human CML) • TdT negative H1-60 (Human ANLL) • RL (CRL-2261) non-HD lymphoma • The concentrations of the active metabolite dATP (Cordycepin triphosphate) in these cell lines was also measured. • The cytotoxic activity and the intracellular 3′-dATP concentrations were also studied in the presence of hENT1, Adenosine Kinase (AK) and Adenosine Deaminase pharmacological inhibitors in CEM and RL cancer cell lines. Said inhibitors that mimic known cancer resistance mechanisms. Methods Cell Culture
(§3) HL-60 (ATCC® CCL-240™), K562 (ATCC® CCL-243™), CCRF-CEM (ATCC® CRM-CCL-119™) and RL (ATCC® CRL-2261™) leukaemia cell lines, obtained from the American Type Culture Collection (ATCC), Middlesex. HL-60 and K562 cell lines are deoxynucleotidyl transferase-negative (TdT-ve), whereas CCRF-CEM cell line is TdT+ve.
(§4) HL-60, K562, CCRF-CEM and RL cell lines were cultured in RPMI-1640 medium (Sigma Aldrich, UK), which were supplemented with 10% Fetal Bovine Serum (FBS) (PAA Laboratories), 1% amphotericin B (5.5 ml) and 1% penicillin/streptomycin (5.5 ml) (PAA Laboratories) and grown in flasks at 37° C. incubator with 5% CO2.
(§5) The amount of ATP was used as a measurement of cell number and cell viability. ATP ViaLight™ plus assay kit (Lonza, USA: Product No. LT07-121) to detect ATP in cells treated in luminescence compatible 96 well plates (initial concentration of cells was 1×10^4 cells/well) with cordycepin and ProTides at concentrations of: 0, 0.1, 0.5, 1, 5 and 10 μM, followed by incubation for 72 hours at 37° C. incubator with 5% CO2. For inhibitor studies, 10 μM of NBTI or 1 μM EHNA or A-134974 was added and left for 5 minutes before adding the drugs (see section 5 for inhibitor details).
(§6) After incubation, 50 μl of cell lysis reagent was added to the 96 well plates to release the intracellular ATP, followed by 100 μl of ATP monitoring reagent (AMR). The luminescent values of each well were determined using FLUOstar OPTIMA microplate reader (BMG Labtech) which convert ATP into light by using luciferase enzyme. Therefore, the amount of luminescence produced was directly proportional to the amount of ATP.
(§7) The dose-response curves of cytotoxicity of the drugs was determined using non-linear regression analysis of percentage cell viability versus concentration and EC50 values were obtained. The intracellular assay was conducted in five replicates for each condition. Intracellular assay was determined using paired t test (two-tailed) analysis of 3′ATP/ATP concentration and p-values were obtained. For all the analysis, Prism Software program (GraphPad Software) was used and Microsoft Powerpoint® 2013 was used to plot the results.

HL-60 (TdT negative) = assay: ATP (ViaLight plus) cytotoxicity assay; format: cell-based, Human; conditions: for (FD) fold difference compared to Cordycepin = Cordycepin IC50/ProTide IC50: HL-60; for IC50: Homo sapiens
Method: as §2, §3, §4, §5, §6, §7

CCRF-CEM = assay: CellTiterGlo viability assay, initial screening; format: cell-based; conditions: Homo sapiens, read-out: IC50 (relative IC50)
Summary of the method: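 Cells were treated in duplicate for 72 hr under standard growth conditions with a 9-point, 3.16-fold compound titration (lowest final 19.9 nM, 0.5% DMSO final). Viability was then read by CellTiter-Glo.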

RL (CRL-2261) = assay: ATP (ViaLight plus) cytotoxicity assay; format: cell-based
Method: as §2, §3, §4, §5, §6
Cell lines were treated in the same way as described above but before treatment with drugs, a number of inhibitors were added: • 1) Nitrobenzylthioinosine (NBTI) (Sigma-Aldrich, St. Louis, Mo., product # N2255) blocks nucleoside transporters • 2) EHNA hydrochloride (Sigma-Aldrich, St. Louis, Mo., product # E114) blocks adenosine deaminase • 3) Adenosine kinase inhibitor A-134974 dihydrochloride hydrate (Sigma-Aldrich, St. Louis, Mo., product # A2846): blocks adenosine kinase
as §7

[1] = CRL, with AK (adenosine kinase inhibitor A-134974, 1 μM)
[2] = CRL, with EHNA 1 μM (adenosine deaminase blocker)
[3] = CRL, with NBTI 10 μM (nucleoside transporter blocker)

Structure (SMILES) | IC50 (HL-60; HL-60, 72 h) [µM] | Emax (HL-60; HL-60, 72 h) [%] | IC50 (CCRFCEM; 72 h) [µM] | Emax (CCRFCEM; 72 h) [%] | IC50 (HT29; HT-29, 72 h) [µM] | Emax (HT29; HT-29, 72 h) [%] | IC50 (HepG2; HepG2, 72 h) [µM] | Emax (HepG2; HepG2, 72 h) [%] | IC50 (MiaPaCa-2; MIA PaCa-2, 72 h) [µM] | Emax (MiaPaCa-2; MIA PaCa-2, 72 h) [%] | IC50 (K562 (TdT negative); K562, 72 h) [µM] | (FD) fold difference compared to Cordycepin = Cordycepin IC50/ProTide IC50 (K562 (TdT negative)) | (FD) fold difference compared to Cordycepin = Cordycepin IC50/ProTide IC50 (HL-60 (TdT negative)) | IC50 (HL-60 (TdT negative); HL-60, 72 h) [µM] | IC50 (CCRF-CEM; 72 h) [µM] | IC50 (RL (CRL-2261); 72 h, CRL (RL, CRL-2261)) [µM] | (FD) fold difference compared to Cordycepin = Cordycepin IC50/ProTide IC50 (RL (CRL-2261); CRL (RL, CRL-2261)) | IC50 (RL (CRL-2261); CRL, Control (no inhibitor)) [µM] | (FD) fold difference compared to control (RL (CRL-2261); CRL, IC50 with AK inhibitor) | (FD) fold difference compared to control (RL (CRL-2261); CRL, IC50 with EHNA) | other results
C[C@H](NP(=O)(OC[C@@H]1CC(O)[C@H](n2cnc3c(N)ncnc32)O1)Oc1ccccc1)C(=O)OCc1ccccc1 (stereo partly drawn) [Compound A, 3′-deoxyadenosine-5′-O-[phenyl(benzyloxy-L-alaninyl)] phosphate] | 5 to 15 | 99 | 0.1 to 5 | 100 | 5 to 15 | 93 | 15 to 100 | 75 | 5 to 15 | 96 | 2.4 | (5) | (3) | 4.6 | 0.1 to 5 | 2.1 | (12) | 3.6 | (3) | (1) | (FD) fold difference compared to control (RL (CRL-2261); CRL, IC50 with NBTI): (1); IC50 (RL (CRL-2261); [1]): 10.2 µM; IC50 (RL (CRL-2261); [2]): 2.9 µM; IC50 (RL (CRL-2261); [3]): 2.6 µM
CCOC(=O)CCc1ccccc1OP(=O)(N[C@@H](C)C(=O)OCc1ccccc1)OC[C@@H]1C[C@@H](O)[C@H](n2cnc3c(N)ncnc32)O1 (stereo partly drawn) [F, (2S)-benzyl 2-(((((2S,4R,5R)-5-(6-amino-9H-purin-9-yl)-4-hydroxytetrahydrofuran-2-yl)methoxy)(2-(3-ethoxy-3-oxopropyl)phenoxy)phosphoryl)amino)propanoate] | 5 to 15 |  | 0.1 to 5 |  | 15 to 100 |  | 15 to 100 |  | 5 to 15 |  | 6.3 | (2) | (1) | 8.3 |  | 3.4 | (7) |  |  |  | 
C[C@H](NP(=O)(OC[C@@H]1C[C@@H](O)[C@H](n2cnc3c(N)ncnc32)O1)Oc1cccc2ccccc12)C(=O)OCc1ccccc1 (stereo partly drawn) [B, (2S)-benzyl 2-(((((2S,4R,5R)-5-(6-amino-9H-purin-9-yl)-4-hydroxytetrahydrofuran-2-yl)methoxy)(naphthalen-1-yloxy)phosphoryl)amino)propanoate] | 0.1 to 5 |  | 0.1 to 5 | 100 | 5 to 15 |  | 5 to 15 |  | 0.1 to 5 |  | 0.21 |  | (4) | 2.6 | 0.1 to 5 | 0.4 |  | 3.1 | (1) | (2) | (FD) fold difference compared to control (RL (CRL-2261); CRL, IC50 with NBTI): (1); IC50 (RL (CRL-2261); [1]): 2.8 µM; IC50 (RL (CRL-2261); [2]): 5.2 µM; IC50 (RL (CRL-2261); [3]): 2.6 µM
Nc1ncnc2c1ncn2[C@@H]1O[C@H](COP(=O)(NCC(=O)OCc2ccccc2)Oc2ccccc2)C[C@H]1O (stereo partly drawn) [C, Benzyl 2-(((((2S,4R,5R)-5-(6-amino-9H-purin-9-yl)-4-hydroxytetrahydrofuran-2-yl)methoxy)(phenoxy)phosphoryl)amino)acetate] | 5 to 15 | 100 | 5 to 15 | 100 | 15 to 100 | 99 | 15 to 100 | 99 | 5 to 15 | 106 |  |  |  |  | 5 to 15 |  |  |  |  |  | 
Nc1ncnc2c1ncn2[C@@H]1O[C@H](CO)C[C@H]1O [Cordycepin, 3′-deoxyadenosine, reference compound] |  |  |  |  |  |  |  |  |  |  |  |  |  |  |  |  |  |  |  |  | IC50 (HL-60; HL-60, 72 hr): > 100 µM; Emax (HL-60; HL-60, 72 hr): 61%; IC50 (CCRFCEM; CCRFCEM, 72 hr): > 100 µM; Emax (CCRFCEM; CCRFCEM, 72 hr): 41%; IC50 (HT29; HT-29, HT29, 72 hr): > 100 µM; Emax (HT29; HT-29, HT29, 72 hr): 44%; IC50 (HepG2; HepG2, 72 hr): > 100 µM; Emax (HepG2; HepG2, 72 hr): 13%; IC50 (MiaPaCa-2; MIA PaCa-2, MiaPaCa-2, 72 hr): > 100 µM; Emax (MiaPaCa-2; MIA PaCa-2, MiaPaCa-2, 72 hr): 35%; IC50 (K562 (TdT negative); K562, 72 hours, read-out: IC50): 10.9 µM; IC50 (HL-60 (TdT negative); HL-60, 72 hours, read-out: IC50): 11.4 µM; IC50 (CCRF-CEM; 72 hr): 15 to 100 µM; IC50 (RL (CRL-2261); 72 h, CRL (RL, CRL-2261), 72 hours, read-out: IC50): 24.5 µM; IC50 (RL (CRL-2261); CRL, Control (no inhibitor), read-out: IC50): 7.3 µM; IC50 (RL (CRL-2261); CRL, with AK (adenosine kinase inhibitor A-134974, 1 μM), read-out: IC50): 28.6 µM; IC50 (RL (CRL-2261); CRL, with EHNA 1 μM (adenosine deaminase blocker), read-out: IC50): 13.2 µM; IC50 (RL (CRL-2261); CRL, with NBTI 10 μM (nucleoside transporter blocker), read-out: IC50): 17.9 µM
